Results on 20 compounds are retold here after PubChem BioAssay (NCI).

Structures are written as SMILES.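 Briefly, cells in 96-well plates were exposed to five compound concentrations for 48 h, and endpoints were estimated by linear interpolation. GI50 marks 50% less growth. TGI: concentration producing complete growth inhibition.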

Common to all, as to experiment: growth of human tumour cells (NCI), 48 h
In test [1] the test system is SN12C renal.
The subject of test [2] is HL-60(TB) leukemia.
For test [3], the system named is SK-MEL-5 melanoma.
For test [4], the system named is TK-10 renal.
Test [5] relates to LOX IMVI melanoma.
The subject of test [6] is HCT-15 colon.
For test [7], the system named is SK-MEL-28 melanoma.
For test [8], the system named is HT29 colon.

`COc1ccc(-c2nn(-c3cccc(Cl)c3)cc2-c2cc(-c3cccs3)[nH]c(=S)n2)cc1`: the GI50 in test [1] was 3.92 µM; in test [2], 3.49 µM; in test [3] it was 2.93 µM; in test [4] it was 4.55 µM; in test [5], 3.56 µM; in test [6], 3690 nM. The GI50 in test [7] is 3.93 µM; in test [8], 3.82 µM. The TGI was greater than 100 µM in test [1]; 13.2 µM in test [2]; 10.9 µM in test [3]; 32.8 µM in test [4]; 13.8 µM in test [5]; greater than 100 µM in test [6]. In addition, the TGI in test [7] was 15.7 µM; in test [8], 13 µM.

`CCOC(=O)N1CCN(/[N+]([O-])=N/Oc2ccc([N+](=O)[O-])cc2[N+](=O)[O-])CC1`: the GI50 in test [1] was 1.45 µM; in test [2], 0.0761 µM; in test [3] it was 2.77 µM; in test [4], 0.406 µM; in test [5], 0.258 µM; in test [6], 346 nM. Further, the GI50 was 1.82 µM in test [7] and 0.322 µM in test [8]. Also, the TGI in test [1] was 6.92 µM; in test [2] it was 0.201 µM; in test [3] it was 12.1 µM; in test [4], 5.57 µM; in test [5], greater than 100 µM; in test [6], 1.46 µM. Moreover, the TGI worked out at 6.69 µM in test [7] and 15.7 µM in test [8].

Take `COc1ccc(/C=C/C(=O)c2cc(OC)c(OC)c(OC)c2)cc1OCc1cn(Cc2ccc(F)cc2)nn1`: the GI50 in test [1] is 3.12 µM; in test [2] it was 3.31 µM; in test [3] it was 3.24 µM; in test [4], 3 µM; in test [5] it was 2.75 µM; in test [6] it was 2040 nM. Further, the GI50 in test [7] is 5.62 µM; in test [8] it was 3 µM. The TGI in test [1] is greater than 100 µM; in test [2], 9.07 µM; in test [3], 13.3 µM; in test [4] it was 8.06 µM; in test [5], 18.7 µM; in test [6] it was greater than 100 µM. Moreover, the values for the TGI in test [7] and in test [8] were 35.5 µM and 7.3 µM, respectively.

Regarding `COc1cccc(N2CCN(CC(=O)N3CCN(c4nnc(-c5ccc(Cl)cc5)c(-c5ccc(Cl)cc5)n4)CC3)CC2)c1`, the GI50 in test [1] is 23.1 µM; in test [2] it was 3.84 µM; in test [3], 8.55 µM; in test [4] it was 17.3 µM; in test [5], 21.3 µM; in test [6], 8350 nM. The GI50 was greater than 100 µM in test [7] and 6.47 µM in test [8]. Moreover, the TGI in test [1] was greater than 100 µM; in test [2], greater than 100 µM; in test [3], greater than 100 µM; in test [4], 85.9 µM; in test [5], greater than 100 µM; in test [6], greater than 100 µM. Also, the TGI in test [7] and in test [8] was greater than 100 µM each time.

As to `COc1ccc2[nH]cc(-c3ccc(-c4c[nH]c5ccc(OC)cc45)s3)c2c1`, the GI50 in test [1] was 11.1 µM; in test [2], 1.59 µM; in test [3], 5.05 µM; in test [4] it was 6.29 µM; in test [5], 2.2 µM; in test [6], 2730 nM. Besides, the figures for the GI50 in test [7] and in test [8] were 12.6 µM and 2.06 µM, respectively. Besides, the TGI was 33.6 µM in test [1]; 6.27 µM in test [2]; 17.6 µM in test [3]; 21.3 µM in test [4]; 5 µM in test [5]; 8.72 µM in test [6]. Besides, the TGI is greater than 50.2 µM in test [7] and 4.51 µM in test [8].

As for `C[C@@]1(C(=O)O)CCC[C@]2(C)C1CC[C@@]13CC(=O)[C@@](CO)(CC[C@]12O)C3` (stereo partly drawn), the GI50 was greater than 100 µM in test [1]; greater than 100 µM in test [2]; greater than 100 µM in test [3]; greater than 100 µM in test [4]; greater than 100 µM in test [5]; greater than 100000 nM in test [6]. The GI50 in test [7] and in test [8] was greater than 100 µM throughout. Further, the TGI in test [1], in test [2], in test [3], in test [4], in test [5] and in test [6] was greater than 100 µM throughout. The TGI in test [7] and in test [8] was greater than 100 µM throughout.

On to `COc1cc(C(O)CCBr)c(OC)cc1C` (stereo not drawn), for which the TGI is greater than 100 µM in test [1]; greater than 100 µM in test [2]; greater than 38 µM in test [3]; greater than 100 µM in test [4]; greater than 100 µM in test [5]; greater than 100 µM in test [6]. Further, the figures for the TGI in test [7] and in test [8] were greater than 100 µM and greater than 58.3 µM, respectively.

Turning to `C/C=C(\C)C(=O)NC1=CC[C@@]2(C)C(=CCC3C2CC[C@@]2(C)C3CC[C@@H]2C(C)N(C)C)C1=O` (stereo partly drawn), the GI50 in test [1] was 4.47 µM; in test [2] it was 1.42 µM; in test [3], 1.39 µM; in test [4], 12.3 µM; in test [5], 1.63 µM; in test [6], 1540 nM. Also, the results for the GI50 in test [7] and in test [8] were 1.72 µM and 0.57 µM, respectively. The TGI is 22.3 µM in test [1]; 5.2 µM in test [2]; 2.95 µM in test [3]; 32.4 µM in test [4]; 3.58 µM in test [5]; 4.65 µM in test [6]. The TGI is 3.24 µM in test [7] and 2.6 µM in test [8].

`CCN(Cc1ccc(Cl)cc1)c1ccc(CO)c(Cl)c1`: the GI50 was 4.35 µM in test [1]; 3.17 µM in test [2]; 2.58 µM in test [3]; 0.0786 µM in test [4]; 3.36 µM in test [5]; 3520 nM in test [6]. Moreover, the GI50 is 11.2 µM in test [7] and 3.12 µM in test [8]. In addition, the TGI in test [1] is 19.3 µM; in test [2], 20.8 µM; in test [3], 13.2 µM; in test [4] it was 0.379 µM; in test [5], 15.3 µM; in test [6] it was 19.8 µM. The TGI in test [7] is 24.2 µM; in test [8], 13.5 µM.

For `O.O.[NH-]C1(C(=O)O)CCCC1.[NH-]C1(C(=O)O)CCCC1.[Ni+2]`, the TGI in test [1], in test [2], in test [3], in test [4], in test [5] and in test [6] was greater than 100 µM each time. In addition, the TGI in test [7] and in test [8] was greater than 100 µM in each case. For the same compound, in test [4], the GI50 is greater than 100 µM.

With `COc1cc(/C=C\c2cc(OC)c(OC)c(OC)c2)cc(NC(=O)/C=C/c2cc(OC)c(OC)c(OC)c2)c1OC`, the GI50 is 27.6 µM in test [1]; 0.509 µM in test [2]; 1.66 µM in test [3]; 6.72 µM in test [4]; 4.51 µM in test [5]; 5510 nM in test [6]. The figures for the GI50 in test [7] and in test [8] were 3.51 µM and 3.87 µM, respectively. For the same compound, the TGI in test [1] is greater than 100 µM; in test [2] it was 4.46 µM; in test [3] it was 3.97 µM; in test [4] it was greater than 100 µM; in test [5], greater than 100 µM; in test [6] it was greater than 100 µM. Besides, the TGI in test [7] and in test [8] was greater than 100 µM in each case.

Consider `O=c1[nH]c(=O)c2cn[nH]c2[nH]1`, for which the GI50 is greater than 100 µM in test [1]; greater than 100 µM in test [2]; greater than 100 µM in test [3]; greater than 100 µM in test [4]; greater than 100 µM in test [5]; greater than 100000 nM in test [6]. The GI50 in test [7] and in test [8] was greater than 100 µM each time. In addition, the TGI in test [1], in test [2], in test [3], in test [4], in test [5] and in test [6] was greater than 100 µM in each case. Besides, the TGI in test [7] and in test [8] was greater than 100 µM each time.

Consider `C=C(C)[C@@H]1CC[C@]2(C)CC[C@]3(C)[C@H](CC[C@@H]4[C@@]5(C)CC[C@H](O)C(C)(C)[C@@H]5CC[C@]43C)[C@@H]12`, for which the TGI is greater than 100 µM in test [1]; greater than 100 µM in test [2]; greater than 100 µM in test [3]; greater than 100 µM in test [4]; 36.3 µM in test [5]; greater than 100 µM in test [6]. Besides, the TGI in test [7] and in test [8] was greater than 100 µM each time.

With `COC(=O)C1CC23CCCN4CCC5(c6ccccc6N(C=O)C15CC2)C43` (stereo not drawn), the TGI in test [1], in test [2], in test [3], in test [4], in test [5] and in test [6] was greater than 100 µM each time. For the same compound, the TGI in test [7] and in test [8] was greater than 100 µM throughout.

Take `N=C1C(c2nc3ccccc3s2)=C(O)CN1c1ccc(F)c(Cl)c1`: the GI50 was 34.6 µM in test [1]; greater than 100 µM in test [2]; 14.6 µM in test [3]; 22.7 µM in test [4]; 20.3 µM in test [5]; 999 nM in test [6]. For the same compound, the GI50 is 33.3 µM in test [7] and 28.9 µM in test [8]. The TGI in test [1] is greater than 100 µM; in test [2], greater than 100 µM; in test [3], 49.5 µM; in test [4], greater than 100 µM; in test [5] it was greater than 100 µM; in test [6], greater than 100 µM. Besides, the TGI in test [7] and in test [8] was greater than 100 µM throughout.

Take `CCCCON(OC(=O)c1ccc2ccccc2c1)C(=O)c1ccccc1`: the GI50 was greater than 100 µM in test [1]; 91 µM in test [2]; greater than 100 µM in test [3]; greater than 100 µM in test [4]; 25.3 µM in test [5]; greater than 100000 nM in test [6]. The GI50 in test [7] and in test [8] was greater than 100 µM in each case. In addition, the TGI in test [1] was greater than 100 µM; in test [2] it was greater than 100 µM; in test [3], greater than 100 µM; in test [4] it was greater than 100 µM; in test [5], 72 µM; in test [6], greater than 100 µM. Further, the TGI in test [7] and in test [8] was greater than 100 µM each time.

Turning to `CNC(=O)Nc1nc2ccc([N+](=O)[O-])cc2[nH]1`, the TGI in test [1], in test [2], in test [3], in test [4], in test [5] and in test [6] was greater than 100 µM in each case. In addition, the TGI in test [7] and in test [8] was greater than 100 µM each time.

Regarding `CCOc1cccc(/C=N/N=C2\C(=O)Nc3c(Cl)cc(Cl)cc32)c1O`, the TGI in test [1], in test [2], in test [3], in test [4], in test [5] and in test [6] was greater than 100 µM each time. Moreover, the TGI in test [7] and in test [8] was greater than 100 µM in each case.

Take `Oc1c(-c2nnc(-c3ccccc3Cl)o2)sc2nnc(-c3ccccc3)c(-c3ccccc3)c12`: the GI50 was 4.29 µM in test [1]; 4.16 µM in test [2]; 5.99 µM in test [3]; 5.39 µM in test [4]; 2.55 µM in test [5]; 813 nM in test [6]. The GI50 is 16.4 µM in test [7] and 4.06 µM in test [8]. Further, the TGI is 90.5 µM in test [1]; greater than 100 µM in test [2]; 19.8 µM in test [3]; 83.7 µM in test [4]; 21.8 µM in test [5]; greater than 100 µM in test [6]. Besides, the TGI in test [7] is greater than 100 µM; in test [8], 20.8 µM.

As to `Clc1nc(Cl)c2ncn(CC3(Cn4cnc5c(Cl)nc(Cl)nc54)COC3)c2n1`, the GI50 in test [1] was 0.26 µM; in test [2], 0.354 µM; in test [3], 0.259 µM; in test [4], 0.601 µM; in test [5] it was 0.18 µM; in test [6], 178 nM. The GI50 in test [7] was 0.212 µM; in test [8], 0.226 µM. The TGI was found to be 0.776 µM in test [1]; 2.78 µM in test [2]; 0.855 µM in test [3]; 1.2 µM in test [4]; 0.349 µM in test [5]; 0.361 µM in test [6]. Further, the TGI in test [7] is 0.396 µM; in test [8] it was greater than 100 µM.
